Test results reported in patent US20260103474A1, “NOVEL COMPOUNDS FOR THE DIAGNOSIS OF TDP-43 PROTEINOPATHIES” (AC IMMUNE SA, priority 2022, published 2026).

Columns and labels:
TDP-43 aggregates = TDP-43 aggregates (Homo sapiens, UniProt Q13148); assay: Micro-autoradiography staining in brain sections from patients with FTD; assay type: binding; set-up: from tissue; host or cells: frozen post-mortem human brain sections (FTLD-TDP type A and type B; non-demented controls in the classical autoradiography); details: FTLD-TDP type A brain sections; 120 nM
TDP-43 aggregates, sequence (Q13148 whole entry): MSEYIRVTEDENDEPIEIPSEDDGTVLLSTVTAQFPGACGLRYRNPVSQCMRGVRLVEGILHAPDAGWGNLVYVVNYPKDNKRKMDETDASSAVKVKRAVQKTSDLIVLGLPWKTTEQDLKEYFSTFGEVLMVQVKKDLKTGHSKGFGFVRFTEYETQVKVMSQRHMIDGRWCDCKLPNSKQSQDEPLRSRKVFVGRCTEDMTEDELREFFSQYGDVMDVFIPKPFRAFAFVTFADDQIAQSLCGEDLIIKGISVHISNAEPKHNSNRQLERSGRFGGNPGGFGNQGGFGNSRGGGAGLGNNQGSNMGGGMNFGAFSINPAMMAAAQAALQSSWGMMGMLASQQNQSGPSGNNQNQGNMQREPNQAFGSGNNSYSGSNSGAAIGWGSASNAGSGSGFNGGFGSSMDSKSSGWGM
Description: All tissues were collected from donors for or from whom a written informed consent for a brain autopsy and the use of the material and clinical information for research purposes had been obtained by the respective brain banks. All samples were anonymized and coded. Frozen brain tissue blocks with confirmed TDP-43 pathology upon autopsy were processed using a cryotome to generate sections of 10 μm in thickness and mounted on glass slides. Sections were kept at −80° C. until use.
Brain sections were immunostained using a commercially available antibody, specific for phosphorylated serine at amino acid 409/410 (anti-pTDP-43 pS409/410, Biolegend, 829901). Sections were fixed for 15 minutes at 4° C. with 4% formaldehyde (Sigma, 252549) and washed three times for height minutes with 1×PBS (Dulbecco's phosphate buffered saline, Sigma D1408) at room temperature. Next, sections were saturated and permeabilized in blocking buffer (PBS, 10% normal goat serum (NGS), 0.25% Triton X-100) for one hour at room temperature and incubated overnight at 4° C. with primary antibody against pTDP-43 (diluted at 1/500 in PBS, 5% NGS, 0.25% Triton X-100). The following day, sections were washed three times for height minutes with 1×PBS before incubation with a secondary, AlexaFluor633-labeled goat-anti-rat antibody (Invitrogen, A-21094, diluted at 1/500 in PBS) for 45 minutes at room temperature. Following incubation with […] antibodies the sections were washed three times in PBS before being processed further.
For micro-autoradiography, tritiated test compound ([^3H]-Compound 1, [^3H]-Compound 9 or [^3H]-Compound 17 respectively) was incubated on the sections at 120 nM in 50 mM Tris buffer pH 7.4 for 45 minutes at room temperature. Sections were then washed as follows: once in ice-cold 50 mM Tris-HCl pH 7.4 buffer for one minute, twice in ice-cold 70% ethanol for one minute, once in ice-cold 50 mM Tris-HCl pH 7.4 buffer for one minute and finally rinsed briefly in ice-cold distilled water. Sections were subsequently dried for one hour under a stream of air and then exposed to Ilford Nuclear Emulsion Type K5 (Agar Scientific, AGP9281) for ten days at 4° C. in a light-proof slide storage box. The sections were developed by immersing them successively in the following solutions: 1.) Ilford Phenisol Developer (1:5 dilution in H2O, Agar Scientific, AGP9106) for four minutes, 2.) Ilfostop solution (1:20 dilution in H2O, Agar Scientific, AGP9104) for two minutes, 3.) Ilford Hypam Fixer (1:5 dilution in H2O, Agar Scientific, AGP9183) for four minutes and finally rinsed with H2O for 10 minutes.
For image acquisition, sections were mounted using ProLong Gold Antifade reagent (Invitrogen P36930) and imaged on a Panoramic250 Slide Scanner (3DHistech) with a 40× objective capturing brightfield and fluorescent images separately or on a Panoramic Scan II (3DHistech) with a 20× objective. The Visiopharm image analysis software suite was used to align the fluorescent image with the brightfield image.

[1] = molecular target: human FTD Type A sarkosyl-insoluble brain extracts (Homo sapiens, UniProt Q13148); assay: Kd determination by micro-radiobinding assay on FTD Type A extracts; assay type: binding; details: tritiated compound 1.29 to 300 nM
human FTD Type A sarkosyl-insoluble brain extracts, sequence (Q13148 263-414 limits assumed): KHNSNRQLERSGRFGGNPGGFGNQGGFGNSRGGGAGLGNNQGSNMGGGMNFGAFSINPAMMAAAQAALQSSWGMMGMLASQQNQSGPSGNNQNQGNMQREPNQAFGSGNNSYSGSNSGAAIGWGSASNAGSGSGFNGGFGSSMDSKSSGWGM
Description: Human brain extracts were prepared as described in Laferriere et al., 2019, Nature Neurosc. A sample of brain tissue (frontal or temporal cortex) was homogenized at 1:4 (w/v) ratio in the homogenization-solubilization (HS) buffer at 4° C. using tissue homogenizer (Precellys) with CKmix homogenization tubes. The following sequence was used for homogenization: 3 cycles of 30 seconds at 5000 rpm (with 15 seconds pause between each cycle). Homogenized samples were aliquoted and stored at −80° C. in 1.5 mL low protein binding tubes.
Brain homogenates were thawed on ice and resuspended in HS buffer to obtain a final concentration of 2% sarkosyl, 1 unit/μL Benzonase and 1 mM MgCl2. The samples were then incubated at 37° C. under constant shaking at 600 rpm on a thermomixer for 45 minutes (min). The supernatants were collected in a new tube (sarkosyl-soluble fraction, S1). The pellet was resuspended in 1000 μL of myelin floatation buffer and centrifuged at 20,000 g for 60 min at 4° C. The supernatant was carefully removed to remove all the floating lipids. This step was repeated if all the lipids could not be removed in a single step. The pellet was subsequently washed with Phosphate-Buffered Saline (PBS) and centrifuged for 30 min at 20,000 g at 4° C. The final pellet was resuspended in 200 μL PBS and stored at −80° C. (sarkosyl-insoluble fraction). The samples were analyzed by immunoblotting in denaturing conditions.
Human FTD sarkosyl-insoluble brain extracts were spotted onto microarray slides. The slides were incubated with [^3H]-Compounds 1, 7, 8, 9, 15, 16 and 17 in a range of concentrations, varying from 1.29 to 300 nM. After incubation, slides were washed and scanned by a real-time autoradiography system (BeaQuant, ai4R). Quantification of the signal was performed by using the Beamage image analysis software (ai4R). Non-specific signal was determined with an excess of non-radiolabeled compound 1, 7, 8, 9, 15, 16 and 17 (1 μM), respectively, and specific binding was calculated by subtracting the non-specific signal from the total signal.
The Kd (Dissociation constant) and R^2 (parameter ranging between 0.0 and 1.0 that quantifies the goodness of fit, and the best curve fit obtained with value of 1.0) were obtained by fitting the specific binding data with non-linear regression analysis, using a one-site specific binding model in GraphPad Prism8.

[3H]c1cncc(N2CCc3nc(-c4cc([3H])c(N5CCCC5)nc4F)sc3C2=O)c1 [[^3H]-Compound 9, Tritiated 2-(2-fluoro-6-(pyrrolidin-1-yl)pyridin-3-yl)-5-(pyridin-3-yl)-6,7-dihydrothiazolo[5,4-c]pyridin-4(5H)-one]
Micro-autoradiography silver grain signal versus pTDP-43 immunostaining (TDP-43 aggregates): colocalization with pTDP-43 aggregates | Kd [1]: 26 nM
